Experimental data taken from patent publication US20080318954A1, “Compounds” (Cyclacel Limited, priority 2004, published 2008).

Target: T1, JNK/SAPK1c (Homo sapiens, UniProt P45983)
T1 construct: Dundee University (panel)
Experiment: Protein kinase panel selectivity screen, JNK/SAPK1c
Format: biochemical
Details: 1 μM compound
Procedure: The names of the 29 kinases comprising the selectivity screen, as well as the ATP concentrations used in each kinase case, are given in Table 5. The kinase assays were carried out as described previously.
Compound XIV at a concentration of 1 μM was screened in the 29-kinase panel (Dundee University) and the results are shown bellow in Table 6.

T1 sequence (P45983 whole entry): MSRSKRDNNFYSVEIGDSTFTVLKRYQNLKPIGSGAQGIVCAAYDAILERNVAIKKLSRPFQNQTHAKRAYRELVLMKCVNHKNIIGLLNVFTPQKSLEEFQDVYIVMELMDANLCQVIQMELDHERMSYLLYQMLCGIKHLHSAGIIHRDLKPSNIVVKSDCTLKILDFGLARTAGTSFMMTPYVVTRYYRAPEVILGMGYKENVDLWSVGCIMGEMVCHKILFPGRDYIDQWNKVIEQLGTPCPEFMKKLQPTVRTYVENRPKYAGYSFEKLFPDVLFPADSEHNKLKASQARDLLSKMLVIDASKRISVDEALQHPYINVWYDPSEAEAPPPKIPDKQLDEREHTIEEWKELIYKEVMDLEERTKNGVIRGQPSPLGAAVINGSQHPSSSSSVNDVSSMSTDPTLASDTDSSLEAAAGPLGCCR

Which inhibition at 1 µM does the source give for `Clc1ccc(Nc2nccc(-c3nccs3)n2)cn1` [Compound XIV, (6-Chloro-pyridin-3-yl)-(4-thiazol-2-yl-pyrimidin-2-yl)-amine] here?
Its inhibition at 1 µM is about 40%.

What about the activity at 1 µM ([ATP] 20 μM) of the same compound?
The activity at 1 µM was 56 ± 4%.
